Reference: article PMC10272112 (Nature Communications, 2023)
“And” between values parts separate entries of the source, which are not always exact repeats. Equal values may be shown once. Values belong to the compound of their own block, whether it stands above or below them.

Assays:
HDAC6 = biological target: T1, HDAC6 (Homo sapiens, UniProt Q9UBN7); test: HDAC-Glo assay; format: biochemical; parameters: purchased BPS Bioscience 50006; settings: sheet S2d
T1 sequence (Q9UBN7 1-1215): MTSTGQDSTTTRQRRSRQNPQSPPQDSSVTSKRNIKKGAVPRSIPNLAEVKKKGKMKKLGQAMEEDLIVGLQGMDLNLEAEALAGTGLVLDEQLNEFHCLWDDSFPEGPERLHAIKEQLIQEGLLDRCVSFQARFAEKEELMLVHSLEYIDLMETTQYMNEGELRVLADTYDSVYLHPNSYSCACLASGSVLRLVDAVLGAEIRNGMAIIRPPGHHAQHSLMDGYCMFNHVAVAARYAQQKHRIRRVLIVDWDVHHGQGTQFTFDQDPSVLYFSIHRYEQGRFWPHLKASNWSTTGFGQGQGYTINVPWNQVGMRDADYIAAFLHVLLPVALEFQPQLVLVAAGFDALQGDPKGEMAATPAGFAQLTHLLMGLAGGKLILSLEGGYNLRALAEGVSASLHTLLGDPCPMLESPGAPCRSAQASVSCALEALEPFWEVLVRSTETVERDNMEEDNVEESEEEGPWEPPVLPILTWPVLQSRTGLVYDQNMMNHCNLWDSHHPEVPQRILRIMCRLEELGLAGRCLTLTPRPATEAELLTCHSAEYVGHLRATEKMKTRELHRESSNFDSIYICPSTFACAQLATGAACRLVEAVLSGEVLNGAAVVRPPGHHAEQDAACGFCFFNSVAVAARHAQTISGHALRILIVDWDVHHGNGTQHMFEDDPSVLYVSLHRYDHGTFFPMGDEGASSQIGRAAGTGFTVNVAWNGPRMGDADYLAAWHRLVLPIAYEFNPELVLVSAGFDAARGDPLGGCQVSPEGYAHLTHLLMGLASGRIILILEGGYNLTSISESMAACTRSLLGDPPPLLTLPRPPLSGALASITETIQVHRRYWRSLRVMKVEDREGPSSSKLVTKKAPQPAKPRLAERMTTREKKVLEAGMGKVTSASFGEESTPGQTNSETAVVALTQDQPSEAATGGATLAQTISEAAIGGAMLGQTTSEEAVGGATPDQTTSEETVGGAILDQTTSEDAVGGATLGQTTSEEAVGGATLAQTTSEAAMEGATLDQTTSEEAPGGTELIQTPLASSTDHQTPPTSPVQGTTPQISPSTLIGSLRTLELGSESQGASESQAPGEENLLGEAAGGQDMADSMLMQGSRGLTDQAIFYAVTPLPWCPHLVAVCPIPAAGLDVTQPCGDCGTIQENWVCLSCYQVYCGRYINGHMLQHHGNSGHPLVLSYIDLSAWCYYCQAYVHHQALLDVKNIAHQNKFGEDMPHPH
Protocol: (§1) To validate the inhibition of HDACs by LA and LM and elaborate on the structure-activity relationship (SAR) of enantiomers as well as oxidized versus reduced forms of the molecules, we performed enzyme activity assays for recombinant HDAC1,2,3,6,8 as well as FRET-based binding assay for recombinant HDAC10.
(§2) The experiments were performed according to ref. [48]. […] Drug dosing was performed with a D300e Digital Dispenser (Tecan). HDACs (7 ng/mL for HDAC1, 25 ng/mL for HDAC2, 200 ng/mL for HDAC3/Ncor2 complex, 100 ng/mL for HDAC6, 200 ng/mL for HDAC8) and inhibitors were incubated together at room temperature (RT) for 30 min. After the addition of the HDAC-Glo™ I/II reagent, plates were shaken (800 rpm orbital shaker, 30 s), centrifuged (300 g, 1 min), and incubated at RT for 30 min. Luminescence was detected with a CLARIOstar (BMG Labtech) plate reader.

HDAC1 = HDAC1 (Homo sapiens, UniProt Q13547); test: HDAC-Glo assay; format: biochemical; parameters: purchased BPS Bioscience 50051; settings: sheet S2d
Protocol: as §1, §2

HDAC8 = biological target: T2, HDAC8 (Homo sapiens, UniProt Q9BY41); test: HDAC-Glo assay; format: biochemical; parameters: purchased BPS Bioscience 50008; settings: sheet S2d
T2 sequence (Q9BY41 1-377): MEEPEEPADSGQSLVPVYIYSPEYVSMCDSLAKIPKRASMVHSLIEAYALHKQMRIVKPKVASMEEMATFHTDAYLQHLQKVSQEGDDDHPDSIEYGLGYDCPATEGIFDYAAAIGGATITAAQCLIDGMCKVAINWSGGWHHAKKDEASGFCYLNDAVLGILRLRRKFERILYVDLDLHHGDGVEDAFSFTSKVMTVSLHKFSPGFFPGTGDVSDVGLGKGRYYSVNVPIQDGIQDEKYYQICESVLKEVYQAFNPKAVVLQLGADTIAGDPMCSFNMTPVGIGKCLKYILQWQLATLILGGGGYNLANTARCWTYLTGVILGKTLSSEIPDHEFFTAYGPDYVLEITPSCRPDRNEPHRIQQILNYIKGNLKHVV
Protocol: as §1, §2

TwinStrep-GST-HDAC10 = biological target: T3, TwinStrep-GST-HDAC10 (Homo sapiens, UniProt Q969S8); test: HDAC10 TR-FRET assay; format: binding; settings: sheet S2e
T3 sequence (Q969S8 1-669): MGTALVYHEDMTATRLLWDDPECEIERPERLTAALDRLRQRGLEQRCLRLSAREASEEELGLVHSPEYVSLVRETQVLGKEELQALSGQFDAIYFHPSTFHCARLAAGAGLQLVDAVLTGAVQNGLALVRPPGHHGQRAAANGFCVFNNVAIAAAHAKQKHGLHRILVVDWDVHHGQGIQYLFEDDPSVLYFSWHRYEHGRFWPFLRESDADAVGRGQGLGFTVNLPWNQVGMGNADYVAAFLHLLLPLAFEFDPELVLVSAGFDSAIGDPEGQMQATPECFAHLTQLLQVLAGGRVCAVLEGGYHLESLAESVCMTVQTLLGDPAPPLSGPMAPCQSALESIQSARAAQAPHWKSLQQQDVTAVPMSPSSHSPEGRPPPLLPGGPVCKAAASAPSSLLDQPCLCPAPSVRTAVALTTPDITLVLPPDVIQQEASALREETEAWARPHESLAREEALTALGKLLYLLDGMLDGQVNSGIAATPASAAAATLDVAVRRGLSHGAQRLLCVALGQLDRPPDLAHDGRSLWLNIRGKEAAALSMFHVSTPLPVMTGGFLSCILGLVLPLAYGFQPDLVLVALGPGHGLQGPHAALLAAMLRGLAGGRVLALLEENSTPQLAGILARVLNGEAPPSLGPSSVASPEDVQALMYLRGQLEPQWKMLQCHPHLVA
Protocol: as §1
Inhibitors with a D300e Digital Dispenser (Tecan). After drug dosing to the premixed assay reagents in buffer, plates were shaken (800 rpm orbital shaker, 30 s), centrifuged (300g, 1 min), and incubated at RT in the dark for 90 min. TR-FRET was measured with a CLARIOstar (BMG Labtech) plate reader, equipped with TR-FRET filters.

Sequence of HDAC1 (Q13547 whole entry): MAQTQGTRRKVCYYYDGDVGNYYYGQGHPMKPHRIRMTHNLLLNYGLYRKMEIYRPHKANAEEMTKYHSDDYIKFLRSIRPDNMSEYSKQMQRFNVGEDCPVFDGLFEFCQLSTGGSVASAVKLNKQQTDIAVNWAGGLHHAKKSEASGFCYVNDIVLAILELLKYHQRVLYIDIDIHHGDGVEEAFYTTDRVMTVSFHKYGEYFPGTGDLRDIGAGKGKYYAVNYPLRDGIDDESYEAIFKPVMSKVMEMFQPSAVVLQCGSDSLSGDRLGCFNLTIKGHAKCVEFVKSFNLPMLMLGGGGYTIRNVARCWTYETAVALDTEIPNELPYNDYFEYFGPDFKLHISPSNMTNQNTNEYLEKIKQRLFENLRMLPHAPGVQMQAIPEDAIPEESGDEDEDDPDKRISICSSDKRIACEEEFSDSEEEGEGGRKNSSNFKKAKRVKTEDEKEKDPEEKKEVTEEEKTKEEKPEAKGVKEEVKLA

HDAC6 relative activity (HDAC6; log conc -3.30103): 1.901 and 1.871 and 1.9083 | HDAC6 relative activity (HDAC6; log conc -3.82945): 3.442 and 3.206 and 3.406 | HDAC6 relative activity (HDAC6; log conc -4.35788): 6.925 and 6.75 and 6.858 | HDAC6 relative activity (HDAC6; log conc -4.88629): 16.7633 and 15.9117 and 16.5726 | HDAC6 relative activity (HDAC6; log conc -5.41477): 38.1371 and 36.4753 and 35.86 | HDAC6 relative activity (HDAC6; log conc -5.94309): 60.9287 and 58.1296 and 64.9441 | HDAC6 relative activity (HDAC6; log conc -6.47756): 84.471 and 78.2193 and 82.7984 | HDAC6 relative activity (HDAC6; log conc -6.87615): 87.6459 and 83.3784 and 85.1621 | HDAC1 relative activity (HDAC1; log conc -3.30103): 2.768 and 2.872 and 2.683 | HDAC1 relative activity (HDAC1; log conc -3.82945): 9.265 and 8.951 and 9.199 | HDAC1 relative activity (HDAC1; log conc -4.35788): 26.7114 and 25.7521 and 27.3764 | HDAC1 relative activity (HDAC1; log conc -4.88629): 53.7175 and 53.6506 and 52.4863 | HDAC1 relative activity (HDAC1; log conc -5.41477): 84.4773 and 84.2156 and 82.4618 | HDAC1 relative activity (HDAC1; log conc -5.94309): 94.7528 and 92.6024 and 91.8471 | HDAC1 relative activity (HDAC1; log conc -6.47756): 99.9185 and 101.441 and 101.474 | HDAC1 relative activity (HDAC1; log conc -6.87615): 103.379 and 101.234 and 95.7354 | HDAC8 relative activity (HDAC8; log conc -3.30103): 5.5387 and 6.443 and 4.956 | HDAC8 relative activity (HDAC8; log conc -3.82945): 15.2478 and 14.986 and 14.6707 | HDAC8 relative activity (HDAC8; log conc -4.35788): 32.9883 and 33.8093 and 29.5437 | HDAC8 relative activity (HDAC8; log conc -4.88629): 65.7743 and 68.9393 and 55.1609 | HDAC8 relative activity (HDAC8; log conc -5.41477): 94.4673 and 96.4781 and 81.2779 | HDAC8 relative activity (HDAC8; log conc -5.94309): 99.9702 and 99.768 and 95.3061 | HDAC8 relative activity (HDAC8; log conc -6.47756): 102.1 and 101.594 and 89.0594 | HDAC8 relative activity (HDAC8; log conc -6.87615): 104.349 and 101.731 and 91.7247
Compound: O=C(O)CCCCC(S)CCS (centres unmarked) [LAred]

HDAC10 TR-FRET relative signal (TwinStrep-GST-HDAC10; log conc -5.74088): 12.9805 and 13.6219 and 13.4323 | HDAC10 TR-FRET relative signal (TwinStrep-GST-HDAC10; log conc -6.32148): 35.3961 and 30.9531 and 27.2587 | HDAC10 TR-FRET relative signal (TwinStrep-GST-HDAC10; log conc -6.92082): 58.0202 and 63.7897 and 66.3493 | HDAC10 TR-FRET relative signal (TwinStrep-GST-HDAC10; log conc -7.57349): 84.4678 and 78.5713 and 85.276 | HDAC10 TR-FRET relative signal (TwinStrep-GST-HDAC10; log conc -8.06198): 102.777 and 109.857 and 101.86
Compound: O=C(O)CCCCC(S)CCS (centres unmarked) [R/S Lipoic Acid Reduced]
